# In PubChem BioAssay AID1417 (Emory University Molecular Libraries Screening Center, 2008):
# Target: Induced myeloid leukemia cell differentiation protein Mcl-1 (Homo sapiens) (UniProt Q07820)
# Assay: Mcl-1/Noxa binding inhibitor potency, dose response, biochemical, TR-FRET (AID 1417)
# Settings: Mcl-1/Noxa peptide interaction, cell-free TR-FRET (terbium/rhodamine), 2 h; measured here: absolute IC50
# Induced myeloid leukemia cell differentiation protein Mcl-1 (Homo sapiens), sequence (Q07820 whole entry, looked up): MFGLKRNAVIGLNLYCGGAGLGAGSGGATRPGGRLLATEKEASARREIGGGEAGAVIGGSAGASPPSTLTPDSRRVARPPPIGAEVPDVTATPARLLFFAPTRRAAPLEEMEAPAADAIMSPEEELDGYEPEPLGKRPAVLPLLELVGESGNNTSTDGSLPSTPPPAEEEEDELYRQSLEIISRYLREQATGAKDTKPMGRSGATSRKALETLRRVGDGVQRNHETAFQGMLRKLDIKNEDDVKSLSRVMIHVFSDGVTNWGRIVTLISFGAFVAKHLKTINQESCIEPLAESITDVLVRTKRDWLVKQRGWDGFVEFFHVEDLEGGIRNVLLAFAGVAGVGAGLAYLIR
row,SMILES,IC50 [µM]
1,O=C1c2ccc([N+](=O)[O-])cc2NC(c2ccco2)N1/N=C/c1ccco1 (stereo not drawn),> 54
2,CC(=O)C1=C(S(=O)(=O)c2ccc(C)cc2)CS(=O)(=O)C1,< 0.4
3,Cc1cccc(NC(=O)c2cccs2)n1,> 54
4,CN(C)c1ccc(NC(=O)c2cccc(C(=O)Nc3ccc(N(C)C)cc3)n2)cc1,4.03
5,CN(C)c1ccc(NC(=O)/C=C/c2c(Cl)cccc2Cl)cc1,> 54
6,CCOC(=O)CC1=CSC2=NS(=O)(=O)CCN12,> 54
7,CCOC1=C/C(=C/c2c(N)n3nc(-c4ccccc4)sc3nc2=O)C=CC1=O,2.43
8,CC(C(=O)NC1CCCC1)N(Cc1ccco1)C(=O)c1snc(C(=O)NC2CCCC2)c1N (stereo not drawn),> 54
9,O=C(N/N=C/c1ccc(O)cc1O)c1ccc(CN2C(=O)c3cccc4cccc2c34)cc1,1.29
10,COc1ccc(/C=C2/SC(=O)N(CCC(=O)Nc3ccc(S(=O)(=O)Nc4nccs4)cc3)C2=O)cc1,3.81
11,O=C(CNC(=O)C(c1ccccc1)c1ccccc1)N/N=C/c1cccnc1,> 54
12,Cc1ccc(C2C(/C=C3/SC(=S)NC3=O)=C(c3cccs3)Oc3ccccc32)cc1 (stereo not drawn),< 0.4
13,CCS(=O)(=O)C1=NN2C(=N)/C(=C\c3ccc(SCc4ccco4)o3)C(=O)N=C2S1,1.46
14,COC/C=C/C1=CC2=CC(=O)C(C)(OC(=O)c3ccco3)C(=O)C2=CO1 (stereo not drawn),2.78
15,O=C(CSc1nnc(SCc2ccccc2)s1)N/N=C/C=C/c1ccco1,4.87
16,COc1ccc(-c2nn(CCC(=O)O)cc2/C=C2\SC(N)=NC2=O)cc1OC,4.36
17,O=C(OCC(=O)N1CCN(C(=O)c2ccco2)CC1)c1cc(-c2ccco2)nc2ccccc12,1.93
18,COc1ccc2c(c1)c1ccc3c(c1n2C)C(=O)C=CC3=O,< 0.4
19,COc1ccc(/C=C2/SC(=S)N(c3ccc(S(=O)(=O)Nc4nccs4)cc3)C2=O)cc1,0.999
20,CCOc1ccc(/C=C/[N+](=O)[O-])c2ccccc12,1.7
21,CCOc1ccc2nc(NC(=O)c3cccc(-c4cc5ccccc5oc4=O)c3)sc2c1,3.75
22,CC(=O)Nc1ccc(C(=O)Nc2cccc(-c3cnc4ccccc4n3)c2)cc1,> 54

row,SMILES,IC50 [µM]
1,CCOC(=O)c1ccc2c(c1)C1C=CCC1C(C(=O)O)N2 (stereo not drawn),< 0.4
2,CCN(CC)c1ccc(NC(=O)c2ccc3c(c2)c(C)c(C)n3C)cc1,> 54
3,O=[N+]([O-])c1ccc2c(c1)N([O-])C1(CCCCC1)[N+]2=O,< 0.4
4,CCN(c1ccc(NC(=O)COC(=O)c2cccs2)cc1)C(C)C,> 54
5,Cc1ccc2c(c1C)NC(C(=O)O)C1CC=CC21 (stereo not drawn),1.07
6,O=C(N/N=C/c1ccc(O)c(O)c1O)/C(=C/c1ccc([N+](=O)[O-])cc1)NC(=O)c1ccccc1,< 0.4
7,O=C(N/N=C/c1ccc(-c2ccc(Cl)c(C(=O)O)c2)o1)c1cc2c(ccc3ccccc32)o1,< 0.4
8,Cc1cc(N(CCO)CCO)ccc1C(c1ccc(N(CCO)CCO)cc1C)c1ccccc1Cl,1.13
9,Clc1cccc(/C=N/Nc2nc(Cl)nc3ccccc23)c1,> 54
10,COCCn1nnnc1C(c1ccc(O)c(OC)c1)N1CCc2ccccc2C1 (stereo not drawn),< 0.4
11,COc1ccc(N2Cc3cccc(C(=O)O)c3C2=O)cc1,4.79
12,CN1CCC(N(C)c2nc(-c3ccc([N+](=O)[O-])cc3)nc3ccccc23)CC1,< 0.4
13,Cc1ccc(NC(=S)NNc2ccc([N+](=O)[O-])cc2S(=O)(=O)Nc2ccccc2C(=O)O)cc1C,1.27
14,Oc1ccc(-c2csc(Nc3ncccn3)n2)cc1O,< 0.4
15,CCCOc1ccc(C(=O)Nc2ccc(N(C)C)cc2)cc1,> 54
16,CCNc1ccc(Br)cc(C(=O)/C=C/c2ccc(Cl)cc2Cl)c1=O,4.19
17,COc1ccc2[nH]c3c4c(ccc3c2c1)C(=O)C=CC4=O,< 0.4
18,COc1ccc2[nH]c3c(C)c4ccncc4c(C)c3c2c1,< 0.4
19,Cc1cc(/C=N/n2c(COc3ccccc3C)nc3ccccc3c2=O)c(O)c([N+](=O)[O-])c1,4.86
20,CC(/C=N\Nc1nnc2c(n1)[nH]c1c(C)cccc12)=C\c1ccco1,3.57
21,Nc1cc2nc[nH]c2cc1N,52.8
22,O=C(O)CCCN1C(=O)/C(=C/C=C/c2ccco2)SC1=S,> 54

row,SMILES,IC50 [µM]
1,O=C(O)CCn1cc(C=C2C(=O)NC(=S)NC2=O)c(-c2cc3ccccc3oc2=O)n1,3.08
2,CC(/C=C1\SC(=S)N(c2ccc(C(=O)O)cc2)C1=O)=C\c1ccccc1,2.81
3,Cc1ccc(/C=C2\SC(=S)N(/N=C/c3cc([N+](=O)[O-])ccc3O)C2=O)o1,< 0.4
4,O=C(O)c1ccc2nc(-c3ccco3)c(-c3ccco3)nc2c1,1.63
5,CNc1ccc(Br)cc(C(=O)/C=C/c2cc(OC)ccc2OC)c1=O,1.73
6,CCN(CC)c1ccc(NC(=O)CCCOc2cccc(C)c2)cc1,> 54
7,O=c1c(O)cccc2cc(O)c(O)c(O)c12,< 0.4
8,CCOc1ccc2nc(N3C(=O)/C(=C/c4ccc(Cl)cc4)NC3=S)sc2c1,1.55
9,CC(C)Oc1ccc(C(=O)Nc2ccc(N(C)C)cc2)cc1,> 54
10,O=C(/C=C/c1cccs1)N1CCN(c2ccc(O)cc2)CC1,3.64
11,Cc1ccc(/C=C/C(=O)Nc2ccc([N+](=O)[O-])c(NC(=O)/C=C/c3ccc(C)o3)c2)o1,< 0.4
12,COc1cc(C(=O)Nc2ccc(N(C)C)cc2)cc(OC)c1OC,> 54
13,COc1cc(/C=N/NC(=O)c2ccc([N+](=O)[O-])cc2Cl)cc(Br)c1O,> 54
14,O=C(Cc1ccc(S(=O)(=O)N2CCOCC2)s1)Nc1nc2c(s1)CCCC2,5.18
15,Cc1ccc(C(=O)Nc2ccc(N3CCCC3)cc2)c(C)c1,> 54
16,O=C1/C(=C/C=C/c2ccco2)SC(=S)N1c1ccc(O)cc1,< 0.4
17,COc1ccc(NC(C)C(=O)Nc2ccc(C#N)cc2)cc1Cl (stereo not drawn),> 54
18,CCc1nn2c(=O)cc(COc3ccc(/C=C4\C(=N)N5N=C(C)SC5=NC4=O)cc3)nc2s1,3.78
19,O=C(N=Nc1c(O)n(Cc2ccccc2)c2ccccc12)c1cc2ccccc2cc1O,4.76
20,O=c1oc2ccccc2c(O)c1/C=C1\C=Nc2ccccc21,4.8
21,O=C(Nc1nccs1)c1cccc(N2C(=O)c3cccc4c([N+](=O)[O-])ccc(c34)C2=O)c1,> 54
22,O=C(/C=C/c1ccco1)Nc1ccc2nn(-c3ccccc3)nc2c1,3.24

row,SMILES,IC50 [µM]
1,CCc1ccc(S(=O)(=O)/N=C2\C=CC(=O)c3ccccc32)cc1,< 0.4
2,Cc1ccc(OCC(=O)Nc2ccc(N3CCCC3)cc2)cc1C,7.07
3,N=C1S/C(=C\c2ccc(-c3cccc(Cl)c3)o2)C(=O)N1c1nccs1,0.861
4,NC(=S)n1[nH]c(-c2ccc([N+](=O)[O-])cc2)c(N=Nc2ccccc2[N+](=O)[O-])c1=O,< 0.4
5,CCc1c(C)[nH]c2ccc(OC)cc2c1=S,< 0.4
6,CCOC(=O)c1c(CSc2ccc(C)cc2)n(C)c2cc(Br)c(O)c(CN(C)C)c12,3.33
7,O=c1c2c3nc4ccccc4nc3n(Cc3ccccc3)c2ncn1Cc1ccco1,> 54
8,CN(C)c1ccc(NC(=O)c2ccc(COc3cccc(Cl)c3)o2)cc1,< 0.4
9,COc1cc(C2C3=C(Nc4nc(N)[nH]c(=O)c42)c2ccccc2C3=O)ccc1O (stereo not drawn),2.28
10,COc1ccc2nc(NC(=O)Nc3cccc4ccccc34)sc2c1,> 54
11,Nc1ccc2nc(-c3ccc(Cl)cc3)[nH]c2c1,30.5
12,O=C(O)CCn1cc(C=C2C(=O)NC(=S)NC2=O)c(-c2cccc(Cl)c2)n1,1.81
13,O=C1NC(=O)N(Cc2ccco2)C(=O)/C1=C/c1ccc(-c2cccc([N+](=O)[O-])c2)o1,3.28
14,FC(F)(F)C1=CC(c2ccccc2)=NCCN1,> 54
15,COc1cc(-c2ccc(Nc3ccccc3C(=O)O)c(OC)c2)ccc1Nc1ccccc1C(=O)O,< 0.4
16,O=[N+]([O-])c1cc(Cl)cc(/C=N/NC(=S)Nc2cc(S(=O)(=O)N3CCOCC3)ccc2Cl)c1O,< 0.4
17,CC(C)CC1NC(=O)N(CC(=O)N2c3ccccc3NC(=O)C2(C)C)C1=O (stereo not drawn),> 54
18,COc1cc(/C=C2\CC/C(=C\c3cc(OC)c(O)c(OC)c3)C2=O)cc(OC)c1O,< 0.4
19,COc1cc(NS(=O)(=O)c2ccc(NC(=S)NC(=O)c3sc4cc(F)ccc4c3Cl)cc2)nc(OC)n1,> 54
20,COc1ccc(CCNC(=O)CN(c2ccc(OC)c(OC)c2)S(C)(=O)=O)cc1,> 54
21,O=c1cc(/N=C/c2coc3c(ccc4ccccc43)c2=O)[nH]c(=S)[nH]1,4.08
22,Oc1ccccc1NCC(O)Cn1ccc2ccccc21 (stereo not drawn),5.23

row,SMILES,IC50 [µM]
1,CCC(=O)N(CC)C1=C(O)c2ccccc2C(=O)C1=O,0.997
2,CCOC(=O)c1cc(C(O)(C(=O)OC)C(F)(F)F)c(/N=C/N(C)C)o1 (stereo not drawn),> 54
3,C=C(C)C(=O)Nc1cccc(C2=NOC3(C2)C[C@H](C(N)=O)N(C(=O)/C=C/C)C3)c1 (stereo partly drawn),2.94
4,Oc1ccc(N=Nc2cccc(Cl)c2)cc1C=Nc1ccc(N2CCOCC2)cc1,> 54
5,Nc1nc(N)c2cc(Sc3ccc4ccccc4c3)ccc2n1,4.06
6,COc1cccc(C(=O)Nc2ccc3nc(N4CCN(c5ncccn5)CC4)cc(C)c3c2)c1OC,8.07
7,COc1ccc(NC(=S)NNc2ccc(S(=O)(=O)Nc3ccccc3C(=O)O)cc2[N+](=O)[O-])cc1,> 54
8,O=C(Nc1ccc([N+](=O)[O-])cc1)Nc1ccc(N2CCOCC2)c2nonc12,4.63
9,CNc1ccc(Br)cc(C(=O)/C=C/c2cccc(Cl)c2Cl)c1=O,0.439
10,CCCCCc1nc2c(=O)[nH]c3ccccc3c2o1,> 54
11,CCN1C(=O)/C(=C/c2ccc3c(c2)CCN3CCCCl)C(=O)NC1=S,2.57
12,CCn1c(C)cc(/C=C2\NC(=O)N(Cc3ccc(Cl)cc3)C2=O)c1C,7.52
13,Nc1cccc(C2=Nc3cccc4cccc(c34)N2)c1,< 0.4
14,O=C(Nc1nc2ccccc2[nH]1)c1ccc(Cl)c([N+](=O)[O-])c1,8.74
15,O=C(CSc1ccsc1[N+](=O)[O-])Nc1cc(F)ccc1F,> 54
16,O=C(O)c1cccc(-n2cccc2/C=C2/NC(=O)N(c3ccc(Cl)cc3)C2=O)c1,< 0.4
17,Oc1ccccc1C1Nc2cccc3cccc(c23)N1,6.64
18,O=C(Nc1ccc(S(=O)(=O)Nc2nccs2)cc1)c1cc(-c2ccncc2)nc2ccccc12,< 0.4
19,Cc1ccccc1/C=N/Nc1ccnc2cc(Cl)ccc12,6.6
20,O=C(O)c1ccc(-n2cccc2/C=C2/NC(=O)N(c3ccccc3)C2=O)cc1,3.33
